Assay results as given in article PMC7544691, “Discovery of a novel EGFR ligand DPBA that degrades EGFR and suppresses EGFR-positive NSCLC growth” (Signal Transduction and Targeted Therapy, 2020).

Biological target: T1, Epidermal growth factor receptor (EGFR) (Homo sapiens, UniProt P00533)
T1 construct: extracellular domain (ECD), recombinant human
Test: MST with recombinant EGFR ECD (also BIAcore SPR, Kd […]; CETSA in A549 and H1975)
Type: binding

T1 sequence (P00533 25-645 limits assumed): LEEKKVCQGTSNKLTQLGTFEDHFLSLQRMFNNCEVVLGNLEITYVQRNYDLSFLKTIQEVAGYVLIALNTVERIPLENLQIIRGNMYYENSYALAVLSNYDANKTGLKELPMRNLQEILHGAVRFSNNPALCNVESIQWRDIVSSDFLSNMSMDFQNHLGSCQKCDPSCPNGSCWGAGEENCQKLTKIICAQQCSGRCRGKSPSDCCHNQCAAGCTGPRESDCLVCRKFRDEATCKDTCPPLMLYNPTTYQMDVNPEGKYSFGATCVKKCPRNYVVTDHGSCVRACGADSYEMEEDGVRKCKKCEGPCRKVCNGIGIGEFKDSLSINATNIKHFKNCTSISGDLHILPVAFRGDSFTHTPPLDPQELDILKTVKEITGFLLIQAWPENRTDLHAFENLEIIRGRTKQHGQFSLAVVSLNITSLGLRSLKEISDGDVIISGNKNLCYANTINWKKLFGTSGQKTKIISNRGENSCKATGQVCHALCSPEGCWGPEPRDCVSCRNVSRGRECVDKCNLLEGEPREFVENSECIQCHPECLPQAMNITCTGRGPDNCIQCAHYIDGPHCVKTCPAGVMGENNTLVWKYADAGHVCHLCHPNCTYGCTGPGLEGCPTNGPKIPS

C=C(C)[C@@H]1CC[C@]2(C(=O)N3CCC(N4CCCCC4)CC3)CC[C@]3(C)[C@H](CC[C@@H]4[C@@]5(C)CC[C@H](O)[C@@](C)(CO)[C@@H]5CC[C@]43C)[C@@H]12 [compound 187, DPBA]
Kd: 38.4 ± 1.75 µM
